This note sets out measurements from US6255324A, “Amino-and mercurio-substituted 4',5'-dihydropsoralens and therapeutical uses thereof” (priority 1998, dated 2001).

The test system of assay [1] is PAM 212 keratinocytes. Nature of the assay: PAM 212 keratinocyte growth inhibition (photo-toxicity with UVA / dark-toxicity without light). It counts as cell-based.
For assay [2], the system named is Chlorella vulgaris. Nature of the assay: Algicidal assay, MIC against Chlorella in modified Allen's medium. It counts as cell-based. The settings on record: Table III, 14 days, 26 to 28° C, no unit in table (ppm). On the procedure: To assay the activity of the 5'-substituted-4',5'-dihydropsoralens of the invention against Chlorella, the Allen method (A. A. Allen, […], Journal of Phycology, 4, 1-4) was employed. […] The minimum inhibitory concentration (MIC) of the compounds tested against the fungus Aspergillus niger using an MSY broth is shown in Table II.
Test tubes containing modified Allen's medium were treated with increasing dosages of the compound to be tested and inoculated with a suspension of algal cells. After fourteen days of incubation, algal growth was rated as positive or negative. The minimum inhibitory concentration (MIC) of the compound is the smallest dosage showing negative algal growth.
The apparatus required consisted of sterilized test tubes, 18-150 mm and an incubator, capable of a constant (±2° C.) temperature within 26 to 28° C. The following procedure was used:
(1) Stock solutions (g/200 g deionized water each) were generated with: K2 HPO4, 1.50 g; MgSO4, 7H2 O, 1.50 g; Na2 CO3, 0.80 g; CaCl2 2H2 O, 0.50 g; Na2 SiO3 9H2 O, 1.16 g, and Citric acid, 1.20 g.
(3) The modified Allen's medium was prepared in a volumetric flask by the addition of 1.5 g NaNO3, 5.0 mL stock solution K2 HPO4, 5.0 mL stock solution MgSO4 -- 7H2 O, 5.0 mL Stock solution Na2 CO3, 10.0 mL stock solution CaCl2 2H2 O, 10.0 mL stock solution Na2 SiO3 9H2 O, 1.0 mL stock solution Citric acid and 1.0 mL stock solution PIV metal with enough deionized water to make 1000 mL of medium (Allen, 1968). The pH was adjusted to 7.8 and 5 mL of medium is added to each test tube. The tubes were sterilized in the autoclave for 20 minutes at 15 psi at 121° C. The test tubes were allowed to cool to 45-50° C. before adding the test compound and the inoculurn to the medium.
(4) The inoculum was a cell suspension from a 14-day-old culture of Chlorella vulgaris (UTEX 26, University of Texas) that was grown in modified Allen's medium.
The concentration of the stock solution in water or acetone of the compound to be tested is dependent on the largest dose required to be tested. Dilutions of the stock solution were made so that 100 μL of the stock solution of the corresponiding dilution was added per test tube. 100 μL of the solvent was added to the control to prepare the stock solution.
The inoculation consists of the addition of 100 μL of inoculurn per test tube.
The incubation of the control test tube and the test tubes containing compound and inoculum occurred in an incubator set between 26 to 28° C., with the temperature not varying more than ±2° C. Light was provided by plant growth fluorescent tubes and the test tubes were allowed to stand in the incubator for 14 days.
Rating of the test tubes containing different dosages of the compound will be positive or negative. […] If the medium in the rubes remains colorless, a negative (not contaminated) rating is given. The control is always positive. The minimum inhibitory concentration (MIC) of the compound is determined to be the smallest dosage showing negative algal growth.

Assay [3] has as its system PAM 212 keratinocytes. The assay is described as follows: PAM 212 keratinocyte growth inhibition (photo-toxicity with UVA / dark-toxicity without light). It counts as cell-based. Conditions: UVA 320-400 nm, 1.28 J/cm2, growth 4-5 days. On the procedure:
Representative examples of the compounds described and claimed herein were tested in this assay for biological activity and found to be potent inhibitors of cell growth. Inhibition of cell growth was rapid, dependent on concentration, and required light activation. […] A description of this assay follows.
The photobiological activity was assayed using a keratinocyte cell line grown in a monolayer culture. In this assay, PAM 212 keratinocytes were grown in Dulbecco's Modified Eagle's medium supplemented with 10% newborn calf serum in a 5% carbon dioxide incubator. Cells were inoculated into 6-well Falcon plastic culture dishes at 25,000 cells per well. After 24 hours, the medium was charged to fresh growth medium supplemented with increasing concentrations of the test compounds or the control medium. Controls and test concentrations were analyzed in triplicate.
These plates were then incubated in a 37 degree C. carbon dioxide incubator. After 30 minutes culture plates were exposed to UVA light (UVA, 320-400 nm) emitted from a bank of four BLB fluorescent light tubes (F40 BL, Sylvania) placed approximately 10 cm above the cell culture plates. The incident light on the culture plates was 2.4 mW/cm^2 as measured with an International Light UV radiometer, Model IL 442A. The cells were exposed to 1.28 J/square centimeter of UVA.
After completion of the irradiation phase, the cell culture medium was drained, the cells refed with fresh growth medium and then re-incubated in the carbon dioxide incubator to allow for cell growth. After 4-5 days of growth the culture plates were removed from the incubator and the cell culture medium was drained. The cells were detached from the plates with trypsin and counted in a Coulter Counter. For control cells or for cells treated with test compounds, cell growth was determined as a percentage of control. […] This value is shown in Table I for a variety of phototherapeutics.

Assay [4] deals with Aspergillus niger. Nature of the assay: Fungicidal assay, MIC against Aspergillus niger in MSY broth. It counts as cell-based. The settings on record: Table II, four days at 28° C, in the dark, no unit in table (ppm levels). As for the experimental part:
The antifungal activities of compounds synthesized were measured by determining the inhibition of growth of Aspergillus niger in a standard liquid medium. The liquid growth medium is described as a solution of mineral salts and yeast extract (MSY). The MSY broth was prepared as described in ASTM G21-70, and amended with glucose (10 g/l) and yeast extract (1 g/l). An aliquot ([…]) of sterile medium was dispensed into each test well of a standard 96 well microplate (Corning No. 430247). Stock solutions of test compounds were prepared by dissolving the materials in 9:1 (v/v) solutions of acetone:methanol. Appropriate volumes of stock solutions were added to the test wells in order to achieve the desired ppm levels. Each test well (plus controls) was then inoculated with […] of a standardized suspension of Aspergillus niger. The cell suspension was prepared by suspending viable cells from a slant of potato dextrose agar into sterile, deionized water. The suspension was then adjusted to provide OD686 =0.28. This density contains approximately 2.5×10^7 CFU (colony forming units)/ml. The microplates were incubated in the dark for four days at 28° C. The optical density for each well at 686 nm was then recorded automatically using a SpectraMax 340 microplate reader (Molecular Devices Corp., Sunnyvale, Calif.). All wells were visually inspected in order to corroborate data from the instrument.
The antifungal activity was measured as minimum inhibitory concentrations or MIC of the 5'-substituted-4',5'-dihydropsoralens.

In assay [5] the test system is Mycobacterium tuberculosis H37Rv. The assay is described as follows: Antituberculosis primary in vitro screen, BACTEC 460. Type of assay: cell-based, Mycobacterium tuberculosis H37Rv ATCC 27294. Conditions: Mycobacterium tuberculosis, H37RV; 12.5 μg/mL, 37° C; read-out: Anti-tubercular Activity (% inhibition).
Setting [6] is: Mus musculus, PAM212, light or radiation study.

Counter-ions that a name gives are not always drawn. Like-named read-outs stand apart in the source and are kept apart here. Where only a bound is given, the exact number is not on record here.

As usually defined, the IC50 is the concentration at which inhibition is half-maximal. “4,8-dimethyl-5'-trifluoroacetomercurimethyl-4',5'-dihydropsoralen [R = H, T = Hg-O-COCF3]”: the IC50 in assay [1] is 7 µM; in assay [3] it was 4.2 µM. Also, the MIC in assay [2] is listed as 10; in assay [4] it was 16.

Usually inhibition stands for the relative decrease from the control value, in per cent. On to `Cc1c(Br)c(=O)oc2c(C)c3c(cc12)CC(CI)O3` (stereo not shown) [R = Br, T = I, 3-Bromo-4,8-dimethyl-5'-iodomethyl-4',5'-dihydropsoralen], for which 0.48 µM corresponded to half-maximal inhibition in assay [3] (setting [6]) (IC50). Moreover, in assay [5], the inhibition at 12.5 µg/mL amounted to 25%.

In the case of `Cc1c(Br)c(=O)oc2c(C)c3c(cc12)CC(CN1C(=O)c2ccccc2C1=O)O3` (stereo not shown) [R = Br, T = phthalimido], in assay [3] (setting [6]), half-maximal inhibition (IC50) required 3.9 µM.

The molecule `Cc1c(Br)c(=O)oc2c(C)c3c(cc12)CC(C[n+]1ccccc1)O3` (stereo not shown) [R = Br, T = pyridinium iodide salt, 3-Bromo-4,8-dimethyl-5'-(N-pyridiniummethyl)-4',5'-dihydropsoralen Iodide Salt] registered an IC50 in assay [3] (setting [6]) of 1.6 µM.

Molecule `Cc1c(C#N)c(=O)oc2c(C)c3c(cc12)CC(CBr)O3` (stereo not shown) [R = CN, T = Br, 3-Cyano-4,8-dimethyl-5'-bromomethyl-4',5'-dihydropsoralen] gave an IC50 in assay [3] of 6.4 µM.

Consider `CC(=O)[O][Hg][CH2]C1Cc2cc3c(C)c(C#N)c(=O)oc3c(C)c2O1` (stereo not shown) [R = CN, T = HgOAc, 3-Cyano-4,8-dimethyl-5'-acetomercurimethyl-4',5'-dihydropsoralen], for which the IC50 was found to be 30 µM in assay [1] and 20 µM in assay [3].

For the molecule `Cc1c(C#N)c(=O)oc2c(C)c3c(cc12)CC(CI)O3` (stereo not shown) [R = CN, T = I, 3-Cyano-4,8-dimethyl-5'-iodomethyl-4',5'-dihydropsoralen], in assay [3] (setting [6]), 2.1 µM corresponded to half-maximal inhibition (IC50).

The molecule `Cc1c(C#N)c(=O)oc2c(C)c3c(cc12)CC(C[n+]1ccccc1)O3` (stereo not shown) [R = CN, T = pyridinium iodide salt, 3-Cyano-4,8-dimethyl-5'-(N-pyridiniummethyl)-4',5'-dihydropsoralen Iodide Salt] had an IC50 in assay [3] (setting [6]) of 1000 µM.

Regarding `Cc1c(F)c(=O)oc2c(C)c3c(cc12)CC(CBr)O3` (stereo not shown) [R = F, T = Br, 3-Fluoro-4,8-dimethyl-5'-bromomethyl-4',5'-dihydropsoralen], inhibition in assay [3] was half-maximal at 4 µM (IC50).

For the molecule `CC(=O)[O][Hg][CH2]C1Cc2cc3c(C)c(F)c(=O)oc3c(C)c2O1` (stereo not shown) [R = F, T = HgOAc, 3-Fluoro-4,8-dimethyl-5'-acetomercurimethyl-4',5'-dihydropsoralen], the IC50 in assay [1] is 14 µM; in assay [3] it was 9.3 µM.

On to `Cc1c(F)c(=O)oc2c(C)c3c(cc12)CC(CI)O3` (stereo not shown) [R = F, T = I, 3-Fluoro-4,8-dimethyl-5'-iodomethyl-4',5'-dihydrofurocoumarin], for which, in assay [3] (setting [6]), inhibition was half-maximal at 62 µM (IC50). The inhibition at 12.5 µg/mL in assay [5] came out at 31%.

In turn, `Cc1cc(=O)oc2c(C)c3c(cc12)CC(CN1CC(C)OC(C)C1)O3` (stereo not shown) [R = H, T = 2,6-dimethylmorpholine, 4,8-Dimethyl-5'-(2,6-dimethylmorpholino)methyl-4',5'-dihydropsoralen] had a half-maximal inhibitory concentration (IC50) in assay [3] (setting [6]) of 0.01 µM.

`Cc1cc(=O)oc2c(C)c3c(cc12)CC(C)O3` (stereo not shown) [R = H, T = H, reference compound] showed an IC50 in assay [3] (setting [6]) of 0.27 µM.

With `Cc1cc(=O)oc2c(C)c3c(cc12)CC([CH2][Hg][Cl])O3` (stereo not shown) [R = H, T = HgCl, 4,8-Dimethyl-5'-chloromercurimethyl-4',5'-dihydropsoralen], the IC50 was determined as 15 µM in assay [1] and 6.1 µM in assay [3]. Further, the MIC in assay [2] was 10; in assay [4], less than 8.

For the molecule `Cc1cc(=O)oc2c(C)c3c(cc12)CC([CH2][Hg][I])O3` (stereo not shown) [R = H, T = HgI, 4,8-Dimethyl-5'-iodomercurimethyl-4',5'-dihydropsoralen], the half-maximal inhibitory concentration (IC50) in assay [1] came to 4.2 µM; in assay [3] it was 1.3 µM. Further, the MIC is 9 in assay [2] and less than 8 in assay [4].

With `CC(=O)[O][Hg][CH2]C1Cc2cc3c(C)cc(=O)oc3c(C)c2O1` (stereo not shown) [R = H, T = HgOAc, 4,8-Dimethyl-5'-acetomercurimethyl-4',5'-dihydropsoralen], the IC50 in assay [1] turned out to be 6.2 µM; in assay [3] it was 4.8 µM. Moreover, the MIC in assay [2] is listed as 10; in assay [4], less than 8.

In assay [3] (setting [6]), `Cc1cc(=O)oc2c(C)c3c(cc12)CC(CN(CCO)CCO)O3` (stereo not drawn) [R = H, T = N(CH2 CH2 OH)2, 4,8-Dimethyl-5'-[N,N-β-(hydroxyethylamino)-methyl]-4',5'-dihydropsoralen] came in with an IC50 of 0.31 µM.

On to `Cc1cc(=O)oc2c(C)c3c(cc12)CC(CN1CCOCC1)O3` (stereo not shown) [R = H, T = morpholino, 4,8-Dimethyl-5'-morpholinomethyl-4',5'-dihydropsoralen], for which half-maximal inhibition in assay [3] (setting [6]) (IC50) required 3.2 µM.

`Cc1cc(=O)oc2c(C)c3c(cc12)CC(C[n+]1ccccc1)O3` (stereo not shown) [R = H, T = pyridinium iodide salt, 4,8-Dimethyl-5'-(N-pyridiniummethyl)-4',5'-dihydropsoralen Iodide Salt] gave an IC50 in assay [3] (setting [6]) of 0.37 µM.

Regarding `[Cl][Hg][CH2]C1Cc2ccccc2O1` (stereo not shown) [T = HgCl, 2-Chloromercurimethyl-2,3-dihydrobenzofuran], the results for the IC50 in assay [1] and in assay [3] were 13 µM and 5.9 µM, respectively. Also, the results for the MIC in assay [2] and in assay [4] were 10 and 24, respectively.

Regarding `CC(=O)[O][Hg][CH2]C1Cc2ccccc2O1` (stereo not shown) [T = HgOAc, 2-Acetomercurimethyl-2,3-dihydrobenzofuran], the IC50 in assay [1] came to 11 µM; in assay [3] it was 6.1 µM. Further, the results for the MIC in assay [2] and in assay [4] were 10 and 16, respectively.
